TGI and GI50 data for 14 molecules are collected here from PubChem BioAssay (NCI).

Some test systems named below: NCI-H226 lung; LOX IMVI melanoma; HOP-92 NSCLC; MALME-3M melanoma; KM12 colon; ACHN renal; OVCAR-5 ovarian; SF-268 CNS; RXF 393 renal; NCI/ADR-RES ovarian.
Holding throughout (assay): NCI-60 cell line screen, 48 h

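In this assay, cells in 96-well plates receive the compound at five concentrations for 48 hours. Endpoints are linearly interpolated between the surrounding concentrations. Abbreviation: GI50, concentration required for 50% inhibition of growth. TGI: concentration producing complete growth inhibition.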 Some results are limits rather than exact numbers.

Consider `Cc1cc(N)c2cc(NC(=O)CCCCCCCCC(=O)Nc3ccc4nc(C)cc(N)c4c3)ccc2n1`, for which the TGI in the assay on NCI-H226 lung was 56.3 µM; in the assay with LOX IMVI melanoma, greater than 100 µM; with HOP-92 NSCLC, 80.3 µM; with MALME-3M melanoma it was 68.8 µM; in the assay with KM12 colon, greater than 68.4 µM; in the assay with ACHN renal, greater than 100 µM. For the same molecule, the TGI in the assay on OVCAR-5 ovarian, in the assay on SF-268 CNS and in the assay with RXF 393 renal was greater than 100 µM in each case.
On to `Cc1nc(C)c(C(=O)NNC(=O)c2ccccc2)cc1C(=O)NNC(=O)c1ccccc1`, for which the TGI in the assay with NCI-H226 lung is greater than 100 µM; in the assay on LOX IMVI melanoma, greater than 100 µM; in the assay on HOP-92 NSCLC, greater than 100 µM; with KM12 colon it was greater than 10 µM; in the assay with ACHN renal, greater than 100 µM; in the assay on OVCAR-5 ovarian, greater than 100 µM. Further, the TGI in the assay on SF-268 CNS, in the assay with RXF 393 renal and with NCI/ADR-RES ovarian was greater than 100 µM each time.
On to H-KIFKKFKTIIKKVWRIFGRF-NH2, for which the GI50 was 2.98 µM in the assay with LOX IMVI melanoma; 2 µM in the assay with HOP-92 NSCLC; 2.1 µM in the assay on OVCAR-5 ovarian; 2.08 µM with SF-268 CNS; 2.09 µM in the assay with RXF 393 renal; 2.95 µM in the assay on NCI/ADR-RES ovarian. The TGI is greater than 100 µM in the assay with LOX IMVI melanoma; 4.67 µM in the assay on HOP-92 NSCLC; 4.28 µM in the assay with OVCAR-5 ovarian; 5.45 µM in the assay on SF-268 CNS; 5.19 µM with RXF 393 renal; 9.57 µM in the assay with NCI/ADR-RES ovarian.
For the molecule `CN1CCN(C2CC(=O)c3c(Cl)sc(Cl)c32)CC1` (configuration not stated), the TGI in the assay with NCI-H226 lung was greater than 65.3 µM; with LOX IMVI melanoma, 3.83 µM; in the assay with HOP-92 NSCLC, greater than 27 µM; in the assay on MALME-3M melanoma it was greater than 50.3 µM; with KM12 colon it was 30.9 µM; in the assay on ACHN renal it was 36.6 µM. Besides, the TGI is greater than 60.8 µM with OVCAR-5 ovarian, greater than 31.1 µM in the assay with SF-268 CNS and greater than 59 µM in the assay on NCI/ADR-RES ovarian.
Turning to `N#CC(NNC(=O)c1c(Cl)c(Cl)c(Cl)c(Cl)c1-c1nc2ccc(C(=O)c3ccccc3)cc2[nH]1)c1cccc(Oc2ccccc2)c1` (configuration not stated), the TGI in the assay with NCI-H226 lung was 53.1 µM; with LOX IMVI melanoma, greater than 100 µM; with HOP-92 NSCLC, 48.3 µM; with KM12 colon it was greater than 100 µM; in the assay on ACHN renal, 88.8 µM; with OVCAR-5 ovarian, 80.3 µM. Besides, the TGI is 55.5 µM in the assay on RXF 393 renal and 57.1 µM in the assay on NCI/ADR-RES ovarian.
Consider `CC(=O)c1c2c(cc3c1CCC3)CCC2`, for which the TGI in the assay on NCI-H226 lung, with LOX IMVI melanoma, in the assay on MALME-3M melanoma, with KM12 colon, in the assay on ACHN renal and with OVCAR-5 ovarian was greater than 100 µM each time. Besides, the TGI in the assay with SF-268 CNS and in the assay on NCI/ADR-RES ovarian was greater than 100 µM each time.
`O=C(O)CSc1nnc(COc2ccccc2)n1-c1ccccc1`: the TGI in the assay with NCI-H226 lung, with LOX IMVI melanoma, in the assay on HOP-92 NSCLC, with MALME-3M melanoma, in the assay on KM12 colon and in the assay on ACHN renal was greater than 100 µM each time. Also, the TGI with OVCAR-5 ovarian and in the assay with SF-268 CNS was greater than 100 µM in each case.
As to `COC1OC(=O)C(OC)C(OC)C1OC` (configuration not stated), the TGI in the assay on NCI-H226 lung, with LOX IMVI melanoma, in the assay on HOP-92 NSCLC, in the assay on KM12 colon, in the assay with ACHN renal and with OVCAR-5 ovarian was greater than 100 µM each time. Further, the TGI in the assay on SF-268 CNS and with NCI/ADR-RES ovarian was greater than 100 µM in each case.
As to `CN(C)CC(C)(C)C(=O)/C=C/c1ccccc1`, the TGI was 29.3 µM with NCI-H226 lung; 25.6 µM with LOX IMVI melanoma; 24.5 µM with HOP-92 NSCLC; 24.1 µM in the assay on MALME-3M melanoma; 28.5 µM in the assay on KM12 colon; 33.3 µM in the assay on ACHN renal. The molecule further had a TGI in the assay with RXF 393 renal of 24.5 µM.
With `CC(C)(C)C1=CC(O)(c2c3ccccc3c(C3(O)C=C(C(C)(C)C)C(=O)C(C(C)(C)C)=C3)c3ccccc23)C=C(C(C)(C)C)C1=O`, the TGI in the assay on NCI-H226 lung is greater than 100 µM; in the assay with LOX IMVI melanoma, greater than 100 µM; in the assay with HOP-92 NSCLC, 0.028 µM; in the assay on MALME-3M melanoma, greater than 100 µM; in the assay on KM12 colon it was greater than 100 µM; in the assay with ACHN renal, greater than 100 µM. Further, the TGI in the assay with OVCAR-5 ovarian, in the assay on SF-268 CNS and in the assay with NCI/ADR-RES ovarian was greater than 100 µM throughout.
For the molecule `COc1ccc(C(OCC2OC(n3ccc(Oc4c(F)c(F)c(F)c(F)c4F)nc3=O)CC2OP(OCCC#N)N(C(C)C)C(C)C)(c2ccccc2)c2ccc(OC)cc2)cc1` (configuration not stated), the TGI in the assay on NCI-H226 lung, in the assay on LOX IMVI melanoma, in the assay on HOP-92 NSCLC, with KM12 colon, with ACHN renal and with OVCAR-5 ovarian was greater than 100 µM each time. Besides, the TGI in the assay on SF-268 CNS, with RXF 393 renal and in the assay on NCI/ADR-RES ovarian was greater than 100 µM each time.
For the molecule `Cc1nc2cccc(F)c2c(=O)n1-c1nnc(C2CC2)s1`, the TGI in the assay on NCI-H226 lung, in the assay with LOX IMVI melanoma, in the assay on HOP-92 NSCLC, in the assay on KM12 colon, with ACHN renal and with OVCAR-5 ovarian was greater than 10 µM each time. In addition, the TGI with SF-268 CNS, in the assay on RXF 393 renal and in the assay on NCI/ADR-RES ovarian was greater than 10 µM each time.
Consider `CCC(C)Cn1c(C)nc2c1C(=O)c1ccccc1C2=O` (configuration not stated), for which the TGI with NCI-H226 lung was greater than 100 µM; in the assay on LOX IMVI melanoma, 66.7 µM; in the assay with HOP-92 NSCLC, 78.9 µM; in the assay with MALME-3M melanoma, 73.7 µM; in the assay with KM12 colon, greater than 100 µM; with ACHN renal, greater than 100 µM. Further, the TGI with SF-268 CNS and in the assay on RXF 393 renal was greater than 100 µM in each case.
Consider `COc1ccc(Nc2ccnc3cc(Cl)ccc23)cc1CN(CCCl)CCCl`, for which the GI50 in the assay with NCI-H226 lung is 1.63 µM; in the assay with LOX IMVI melanoma, 0.724 µM; in the assay on HOP-92 NSCLC, 1.17 µM; in the assay with KM12 colon, 2.21 µM; with OVCAR-5 ovarian it was 2.84 µM; in the assay on SF-268 CNS, 1.15 µM. For the same molecule, the GI50 in the assay on NCI/ADR-RES ovarian is 3.84 µM. The TGI is 4.17 µM in the assay on NCI-H226 lung; 4.39 µM with LOX IMVI melanoma; 5.53 µM in the assay with HOP-92 NSCLC; 9.75 µM in the assay with KM12 colon; 5.94 µM in the assay with OVCAR-5 ovarian; 4.89 µM in the assay with SF-268 CNS. Besides, the TGI in the assay with NCI/ADR-RES ovarian was greater than 100 µM.
